Measured values: PMC12072072 (International Journal of Molecular Sciences, 2025)
Where two headings read alike, the source gives them in different places.

What was measured:
[1] = tested on: CHO (Chinese hamster ovary); test: MTT assay, CHO cells; assay type: cell-based; conditions: for IC50: Cricetulus griseus, CHO, MTT assay, CHO cells, value (standard deviation), read-out: IC50 [μM] (±s) CHO; for Selectivity Index (SI) CHO: IC50 of HDFs / IC50 of CHO
Protocol: (§1) Each medium was supplemented with 10% fetal bovine serum, 1% L-glutamine, and 1% penicillin/streptomycin solution. The cell lines were incubated at 37 °C in a humidified atmosphere containing 5% CO2. Cells were counted using the Fuchs–Rosenthal counting chamber (hemocytometer) with modifications.
(§2) The final product of this reaction gives violet formazan crystals. The number of live cells is proportional to the amount of formazan and is represented by the violet dye reagent. The details of the experiments are given, e.g., in [54].
(§3) Statistical analyses for the cytotoxic activity were carried out using the nonparametric Kruskal–Wallis H test for unpaired data and ANOVA Friedman two-way analysis of variance test for paired data. Statistical significance was tested using Dunn’s post-hoc test. The IC50 values compared to the control IC50 were calculated using GraphPad Prism v. 10.1.1. software.

[2] = tested on: HDFs (human dermal fibroblasts); test: MTT assay, HDFs (normal cells); assay type: cell-based; conditions: Fibroblast, value (standard deviation), read-out: IC50 [μM] (±s) HDFs
Protocol: as §1, §2, §3

[3] = tested on: A-549, PC-3, and SKOV-3; test: MTT assay, statements over the cancer cell lines together; assay type: cell-based, human; conditions: for IC50: MTT assay, A-549, PC-3 and SKOV-3 together, summary of Table 3, read-out: IC50 stated over the cancer cell lines together; for Selectivity Index stated over the tested cell lines together: IC50 of HDFs / IC50 of cell line, text summary of Table 4
Protocol: as §1, §2

[4] = tested on: PC-3 (human prostate carcinoma); test: Cell Death Detection ELISA Plus, PC-3; assay type: cell-based; conditions: DNA fragmentation ELISA, sample vs negative control; tested at 0.1, 1.0 and 10.0 µg/mL, concentration of the value not stated
Protocol: (§4) The induction of apoptosis by tested compounds was determined with Cell Death Detection ELISA Plus from Roche Diagnostics GmbH (Mannheim, Germany).
(§5) The Cell Death Detection ELISA PLUS photometric enzyme immunoassay is used to quantitatively in vitro determination of cytoplasmic histone-associated DNA fragments (mono- and oligonucleosomes) after induced cell death. The kit contains a stop solution that allows users to terminate the substrate reaction and run the assay under defined conditions, making it suitable for high-throughput applications. This kit can be used for the relative quantification of histone-complexed DNA fragments (mono- and oligonucleosomes) out of the cytoplasm of cells after the induction of apoptosis or when released from necrotic cells. […] The antibodies used in the assay are not species-specific; therefore, the kit may be used to assay cells from various species. The details of the experiments are given in [74]. As an internal reference compound (cytostatic drug), camptothecin (topoisomerase I-inhibitor) was used in this study to induce apoptosis. The negative control is the sample without camptothecin treatment. […] Cells were counted using a Fuchs–Rosenthal counting chamber (hemocytometer) with modifications. The apoptotic index was calculated based on the enrichment of mono- and oligonucleosomes according to the following equation:apoptotic index = [{A405(sample) − A490(sample)}/{A405(negative control) − A490(negative control)}]

[5] = tested on: A-549 (human lung carcinoma); test: MTT assay, A-549 cells; assay type: cell-based; conditions: for IC50: Homo sapiens, A549, MTT assay, A-549 cells, value (standard deviation), read-out: IC50 [μM] (±s) A-549; for Selectivity Index (SI) A-549: IC50 of HDFs / IC50 of A-549
Protocol: as §1, §2, §3

[6] = tested on: SKOV-3 (human ovarian carcinoma); test: Cell Death Detection ELISA Plus, SKOV-3; assay type: cell-based; conditions: DNA fragmentation ELISA, sample vs negative control; tested at 0.1, 1.0 and 10.0 µg/mL, concentration of the value not stated
Protocol: as §4, §5

[7] = tested on: PC-3 (human prostate carcinoma); test: MTT assay, PC-3 cells; assay type: cell-based; conditions: for IC50: PC-3 cells, value (standard deviation), read-out: IC50 [μM] (±s) PC-3; for Selectivity Index (SI) PC-3: IC50 of HDFs / IC50 of PC-3
Protocol: as §1, §2, §3

[8] = tested on: SKOV-3 (human ovarian carcinoma); test: MTT assay, SKOV-3 cells; assay type: cell-based; conditions: for IC50: SKOV-3 cells, value (standard deviation), read-out: IC50 [μM] (±s) SKOV-3; for Selectivity Index (SI) SKOV-3: IC50 of HDFs / IC50 of SKOV-3
Protocol: as §1, §2, §3

[9] = Solubility (remark); assay type: physicochemical; conditions: remark among limitations, solvent not stated
[10] = Homo sapiens, SK-OV-3, MTT assay

SMILES	IC50 ([3]; Homo sapiens) [µM]	IC50 [5] [µM]	IC50 ([7]; Homo sapiens, PC-3, MTT assay) [µM]	IC50 [8, 10] [µM]	solubility [9]	IC50 [3] [µM]	IC50 [1] [µM]	Selectivity Index (SI) CHO [1]	IC50 [2] [µM]	Selectivity Index stated over the tested cell lines together [3]	Apoptotic Index (AI) PC-3 [4]	Selectivity Index (SI) A-549 [5]	Apoptotic Index (AI) SKOV-3 [6]	Selectivity Index (SI) PC-3 [7]	IC50 ([7]; MTT assay) [µM]	Selectivity Index (SI) SKOV-3 [8]	IC50 ([8]; MTT assay) [µM]
CC(=O)O[C@H]1CC[C@@]2(C)C(CC[C@]3(C)C2C[C@H](O)[C@]24OC(=O)[C@@]5(CCC(C)(C)CC52)CC[C@]43C)C1(C)C (stereo partly drawn) [Compound 2, 3β-Acetoxy-12α-hydroxyolean-28-oic acid 28β→13β-olide]	1 to 9	4.68	1.88	1.73	–	–	4.19	1.79	7.51	exceeds 2	4.76 (0.02)	1.60	4.71 (0.11)	2.30	3.26	2.54	2.96
CC(=O)O[C@H]1CC[C@@]2(C)C(CC[C@]3(C)C2CC(=O)[C@]24OC(=O)[C@@]5(CCC(C)(C)CC52)CC[C@@]34C)C1(C)C (stereo partly drawn) [Compound 4, 3β-Acetoxy-12-oxoolean-28-oic acid 28β→13β-olide]	24 to 38	24.7	25.9	22.8	–	–	52.7	0.79	42	~2	–	1.70	–	1.62	–	1.84	–
CC1(C)CC[C@@]23CC[C@@]4(C)[C@]5(C)CCC6C(C)(C)[C@@H](O)CC[C@]6(C)C5CC(=O)[C@]4(OC2=O)C3C1 (stereo partly drawn) [Compound 5, 3β-Hydroxy-12-oxoolean-28-oic acid 28β→13β-olide]	24 to 38	38	31	37	–	–	38.2	1.35	51.8	–	–	1.36	–	1.67	–	1.40	–
CC(=O)OC1CCC2(C)C(CCC3(C)C2CC(=NO)C24OC(=O)C5(CCC(C)(C)CC52)CCC34C)C1(C)C (stereo not drawn) [Compound 6, 3β-Acetoxy-12-hydroxyiminoolean-28-oic acid 28β→13β-olide]	1 to 9	1.27	1.88	1.73	–	–	–	0.71	3.91	exceeds 2	7.28 (0.02)	3.08	7.22 (0.06)	2.08	–	2.26	–
CC1(C)CC[C@@]23CC[C@@]4(C)[C@]5(C)CCC6C(C)(C)C(=O)CC[C@]6(C)C5CC(=O)[C@]4(OC2=O)C3C1 (stereo partly drawn) [Compound 7, 3,12-Dioxoolean-28-oic acid 28β→13β-olide]	> 100	66.1	> 100	> 100	poor solubility	–	> 100	–	> 100	–	–	–	–	–	–	–	–
CC1(C)CC[C@@]23CC[C@]4(C)[C@@](OC2=O)(C3C1)[C@@H](Br)CC1[C@@]2(C)CC[C@H](O)C(C)(C)C2CC[C@]14C (stereo partly drawn) [Compound 9, 12α-Bromo-3β-hydroxyolean-28-oic acid 28β→13β-olide]	11 to 90	29.9	26.1	26.4	–	–	42	1.21	51	~2	–	1.71	–	1.95	–	1.93	–
CC1(C)CC[C@@]23CC[C@]4(C)[C@@](OC2=O)(C3C1)[C@@H](Br)CC1[C@@]2(C)CCC(=O)C(C)(C)C2CC[C@]14C (stereo partly drawn) [Compound 10, 12α-Bromo-3-oxoolean-28-oic acid 28β→13β-olide]	11 to 90	15.6	12.9	12.1	–	12 to 15	21.4	1.83	39.1	exceeds 2	5.82 (0.04)	2.51	5.05 (0.03)	3.02	–	3.24	–

Continued, in another order:

IC50 ([3]; Homo sapiens) [µM]	IC50 [5] [µM]	IC50 ([7]; Homo sapiens, PC-3, MTT assay) [µM]	IC50 [8, 10] [µM]	solubility [9]	IC50 [3] [µM]	SMILES	IC50 [1] [µM]	Selectivity Index (SI) CHO [1]	IC50 [2] [µM]	Selectivity Index stated over the tested cell lines together [3]	Apoptotic Index (AI) PC-3 [4]	Selectivity Index (SI) A-549 [5]	Apoptotic Index (AI) SKOV-3 [6]	Selectivity Index (SI) PC-3 [7]	IC50 ([7]; MTT assay) [µM]	Selectivity Index (SI) SKOV-3 [8]	IC50 ([8]; MTT assay) [µM]
22 to 35	34.6	25.1	21.8	–	–	CC1(C)CC[C@@]23CC[C@]4(C)[C@@](OC2=O)(C3C1)[C@@H](Br)CC1[C@@]2(C)CCC(=NO)C(C)(C)C2CC[C@]14C (stereo partly shown) [Compound 11]	55.4	0.52	28.9	–	–	0.83	–	1.15	–	1.33	–
–	7.88	6.27	6.22	–	< 10	C=C(C)C1CC[C@]2(C)C(C[C@H](Br)[C@]34OC(=O)[C@@]5(CCC(C)(C)CC53)CC[C@]42C)[C@@]1(C)CCC#N (stereo partly drawn) [Compound 12, 12α-Bromo-3-nitrilo-3,4-secoolean-4(23)-ene-28-oic acid 28β→13β-olide]	9.23	0.99	9.13	–	5.43 (0.05)	1.15	5.11 (0.01)	1.46	–	1.47	–
11 to 90	66.2	65.9	68.3	–	–	CC1(C)CC[C@@]23CC[C@]4(C)[C@@](OC2=O)(C3C1)[C@@H](Br)CC1[C@@]2(C)CCC(=S)NC(C)(C)C2CC[C@]14C (stereo partly drawn) [Compound 14, 12α-bromo-3-thioxo-3a-aza-A-homoolean-28-oic acid 28β→13β-olide]	87	0.97	84.1	–	–	1.27	–	1.28	–	1.23	–
